Numbers after ± are expanded uncertainties.
Conditions: 101.33 kPa, Liquid

ClCCCl [1,2-dichloroethane]
Conditions | mass density [kg/m3]
283.15 K | 1267.39 ± 0.29
284.15 K | 1265.95 ± 0.29
285.15 K | 1264.5 ± 0.29
286.15 K | 1263.05 ± 0.29
287.15 K | 1261.6 ± 0.28
288.15 K | 1260.15 ± 0.28
289.15 K | 1258.7 ± 0.28
290.15 K | 1257.25 ± 0.28
291.15 K | 1255.8 ± 0.28
292.15 K | 1254.35 ± 0.28
293.15 K | 1252.89 ± 0.28
294.15 K | 1251.44 ± 0.28
295.15 K | 1249.98 ± 0.28
296.15 K | 1248.52 ± 0.27
297.15 K | 1247.07 ± 0.27
298.15 K | 1245.61 ± 0.27
299.15 K | 1244.15 ± 0.27
300.15 K | 1242.69 ± 0.27
301.15 K | 1241.22 ± 0.27
302.15 K | 1239.76 ± 0.27
303.15 K | 1238.29 ± 0.27
304.15 K | 1236.83 ± 0.26
305.15 K | 1235.36 ± 0.26
306.15 K | 1233.89 ± 0.26
307.15 K | 1232.42 ± 0.26
308.15 K | 1230.95 ± 0.26
309.15 K | 1229.47 ± 0.26
310.15 K | 1228 ± 0.26
311.15 K | 1226.53 ± 0.26
312.15 K | 1225.05 ± 0.26
313.15 K | 1223.57 ± 0.25
314.15 K | 1222.09 ± 0.25
315.15 K | 1220.61 ± 0.25
316.15 K | 1219.13 ± 0.25
317.15 K | 1217.64 ± 0.25
318.15 K | 1216.16 ± 0.25
319.15 K | 1214.67 ± 0.25
320.15 K | 1213.18 ± 0.25
321.15 K | 1211.69 ± 0.24
322.15 K | 1210.2 ± 0.24
323.15 K | 1208.7 ± 0.24
324.15 K | 1207.21 ± 0.24
325.15 K | 1205.71 ± 0.24
326.15 K | 1204.21 ± 0.24
327.15 K | 1202.71 ± 0.24
328.15 K | 1201.21 ± 0.24
329.15 K | 1199.7 ± 0.23
330.15 K | 1198.19 ± 0.23
331.15 K | 1196.69 ± 0.23
332.15 K | 1195.18 ± 0.23
333.15 K | 1193.66 ± 0.23

COCCOC [1,2-dimethoxyethane]
Conditions | mass density [kg/m3]
283.15 K | 877.64 ± 0.47
284.15 K | 876.56 ± 0.47
285.15 K | 875.48 ± 0.47
286.15 K | 874.4 ± 0.48
287.15 K | 873.31 ± 0.48
288.15 K | 872.23 ± 0.48
289.15 K | 871.14 ± 0.48
290.15 K | 870.05 ± 0.48
291.15 K | 868.96 ± 0.48
292.15 K | 867.87 ± 0.48
293.15 K | 866.79 ± 0.49
294.15 K | 865.7 ± 0.49
295.15 K | 864.61 ± 0.49
296.15 K | 863.51 ± 0.49
297.15 K | 862.42 ± 0.49
298.15 K | 861.32 ± 0.49
299.15 K | 860.22 ± 0.49
300.15 K | 859.12 ± 0.5
301.15 K | 858.01 ± 0.5
302.15 K | 856.91 ± 0.5
303.15 K | 855.8 ± 0.5
304.15 K | 854.69 ± 0.5
305.15 K | 853.58 ± 0.5
306.15 K | 852.46 ± 0.5
307.15 K | 851.35 ± 0.51
308.15 K | 850.24 ± 0.51
309.15 K | 849.13 ± 0.51
310.15 K | 848.02 ± 0.51
311.15 K | 846.9 ± 0.51
312.15 K | 845.79 ± 0.51
313.15 K | 844.67 ± 0.51
314.15 K | 843.55 ± 0.52
315.15 K | 842.42 ± 0.52
316.15 K | 841.29 ± 0.52
317.15 K | 840.17 ± 0.52
318.15 K | 839.04 ± 0.52
319.15 K | 837.91 ± 0.52
320.15 K | 836.77 ± 0.52
321.15 K | 835.64 ± 0.53
322.15 K | 834.5 ± 0.53
323.15 K | 833.36 ± 0.53
324.15 K | 832.22 ± 0.53
325.15 K | 831.08 ± 0.53
326.15 K | 829.93 ± 0.53
327.15 K | 828.78 ± 0.53
328.15 K | 827.63 ± 0.54
329.15 K | 826.48 ± 0.54
330.15 K | 825.33 ± 0.54
331.15 K | 824.17 ± 0.54
332.15 K | 823.02 ± 0.54
333.15 K | 821.86 ± 0.54

COCCOCCOC [2,5,8-trioxanonane]
Conditions | mass density [kg/m3]
283.15 K | 953.66 ± 0.38
284.15 K | 952.67 ± 0.38
285.15 K | 951.69 ± 0.38
286.15 K | 950.7 ± 0.38
287.15 K | 949.71 ± 0.38
288.15 K | 948.72 ± 0.38
289.15 K | 947.73 ± 0.39
290.15 K | 946.74 ± 0.39
291.15 K | 945.75 ± 0.39
292.15 K | 944.76 ± 0.39
293.15 K | 943.76 ± 0.39
294.15 K | 942.79 ± 0.39
295.15 K | 941.79 ± 0.39
296.15 K | 940.79 ± 0.39
297.15 K | 939.8 ± 0.4
298.15 K | 938.8 ± 0.4
299.15 K | 937.8 ± 0.4
300.15 K | 936.81 ± 0.4
301.15 K | 935.81 ± 0.4
302.15 K | 934.82 ± 0.4
303.15 K | 933.82 ± 0.4
304.15 K | 932.82 ± 0.4
305.15 K | 931.82 ± 0.4
306.15 K | 930.82 ± 0.41
307.15 K | 929.83 ± 0.41
308.15 K | 928.83 ± 0.41
309.15 K | 927.82 ± 0.41
310.15 K | 926.83 ± 0.41
311.15 K | 925.82 ± 0.41
312.15 K | 924.82 ± 0.41
313.15 K | 923.82 ± 0.41
314.15 K | 922.81 ± 0.42
315.15 K | 921.81 ± 0.42
316.15 K | 920.8 ± 0.42
317.15 K | 919.8 ± 0.42
318.15 K | 918.79 ± 0.42
319.15 K | 917.78 ± 0.42
320.15 K | 916.78 ± 0.42
321.15 K | 915.77 ± 0.42
322.15 K | 914.75 ± 0.43
323.15 K | 913.75 ± 0.43
324.15 K | 912.73 ± 0.43
325.15 K | 911.72 ± 0.43
326.15 K | 910.7 ± 0.43
327.15 K | 909.69 ± 0.43
328.15 K | 908.67 ± 0.43
329.15 K | 907.65 ± 0.44
330.15 K | 906.63 ± 0.44
331.15 K | 905.62 ± 0.44
332.15 K | 904.6 ± 0.44
333.15 K | 903.59 ± 0.44

CCOCCOCCOCC [diethylene glycol diethyl ether]
Conditions | mass density [kg/m3]
283.15 K | 916.36 ± 1.1
284.15 K | 915.39 ± 1.1
285.15 K | 914.43 ± 1.1
286.15 K | 913.46 ± 1.1
287.15 K | 912.5 ± 1.1
288.15 K | 911.53 ± 1.1
289.15 K | 910.57 ± 1.1
290.15 K | 909.6 ± 1.1
291.15 K | 908.63 ± 1.1
292.15 K | 907.67 ± 1.1
293.15 K | 906.71 ± 1.1
294.15 K | 905.75 ± 1.1
295.15 K | 904.78 ± 1.1
296.15 K | 903.81 ± 1.1
297.15 K | 902.85 ± 1.1
298.15 K | 901.88 ± 1.1
299.15 K | 900.92 ± 1.1
300.15 K | 899.95 ± 1.1
301.15 K | 898.98 ± 1.1
302.15 K | 898.02 ± 1.1
303.15 K | 897.05 ± 1.1
304.15 K | 896.08 ± 1.1
305.15 K | 895.12 ± 1.1
306.15 K | 894.15 ± 1.1
307.15 K | 893.18 ± 1.1
308.15 K | 892.21 ± 1.1
309.15 K | 891.25 ± 1.1
310.15 K | 890.28 ± 1.1
311.15 K | 889.31 ± 1.1
312.15 K | 888.34 ± 1.1
313.15 K | 887.37 ± 1.1
314.15 K | 886.4 ± 1.1
315.15 K | 885.43 ± 1.1
316.15 K | 884.46 ± 1.1
317.15 K | 883.48 ± 1.1
318.15 K | 882.51 ± 1.1
319.15 K | 881.54 ± 1.1
320.15 K | 880.57 ± 1.1
321.15 K | 879.6 ± 1.1
322.15 K | 878.63 ± 1.1
323.15 K | 877.66 ± 1.1
324.15 K | 876.7 ± 1.1
325.15 K | 875.73 ± 1.1
326.15 K | 874.75 ± 1.1
327.15 K | 873.78 ± 1.1
328.15 K | 872.81 ± 1.1
329.15 K | 871.84 ± 1.1
330.15 K | 870.87 ± 1.1
331.15 K | 869.89 ± 1.1
332.15 K | 868.92 ± 1.1
333.15 K | 867.94 ± 1.1
